Measurements reported in US20250230193A1, “CYCLIC COMPOUND HAVING SELECTIVE KRAS INHIBITORY EFFECT ON HRAS AND NRAS” (CHUGAI SEIYAKU KABUSHIKI KAISHA, priority 2022, published 2025).

Tests used:
[1] = molecular target: GDP-bound HRAS wild-type protein (Homo sapiens, UniProt P01112); assay: Binding to HRAS by surface plasmon resonance (SPR), Single Cycle Kinetics; conditions: for HRAS/KRAS (ratio of KD value for HRAS to KD value for KRAS) / HRAS/KRAS (ratio of KD value with respect to HRAS to KD value with respect to KRAS): GDP-bound HRAS wild-type vs GDP-bound KRAS wild-type, SPR
[2] = molecular target: GDP-bound NRAS wild-type protein (Homo sapiens, UniProt P01111); assay: Binding to NRAS by surface plasmon resonance (SPR), Single Cycle Kinetics; conditions: for NRAS/KRAS (ratio of KD value for NRAS to KD value for KRAS) / NRAS/KRAS (ratio of KD value with respect to NRAS to KD value with respect to KRAS): GDP-bound NRAS wild-type vs GDP-bound KRAS wild-type, SPR
Chain of GDP-bound NRAS wild-type protein (P01111 whole entry): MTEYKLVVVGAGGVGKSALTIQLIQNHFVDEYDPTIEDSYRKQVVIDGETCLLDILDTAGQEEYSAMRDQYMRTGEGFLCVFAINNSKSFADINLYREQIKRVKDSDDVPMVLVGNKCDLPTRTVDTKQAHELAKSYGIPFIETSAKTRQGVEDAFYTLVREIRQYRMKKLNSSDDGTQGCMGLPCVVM

Chain of GDP-bound HRAS wild-type protein (P01112 whole entry): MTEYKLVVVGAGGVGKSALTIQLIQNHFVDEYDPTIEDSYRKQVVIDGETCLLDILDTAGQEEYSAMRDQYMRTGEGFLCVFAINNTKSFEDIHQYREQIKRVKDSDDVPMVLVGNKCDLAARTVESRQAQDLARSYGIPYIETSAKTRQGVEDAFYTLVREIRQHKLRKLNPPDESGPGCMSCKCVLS

Structure (SMILES)	HRAS/KRAS (ratio of KD value for HRAS to KD value for KRAS) ([1]; KD ratio)	NRAS/KRAS (ratio of KD value for NRAS to KD value for KRAS) ([2]; KD ratio)	also measured
CCC[C@H]1C(=O)N[C@@H]([C@@H](C)CC)C(=O)N(C)CC(=O)N(C)[C@H]2C/C=C\CCN(C2=O)[C@@H](Cc2ccc(C(F)(F)F)cc2)C(=O)N(C)CC(=O)N[C@@H](CCc2cc(F)c(C(F)(F)F)c(F)c2)C(=O)N(C)[C@@H](C)C(=O)NC2(CC(C)(C)C2)C(=O)N(C)[C@@H](C2CCCC2)C(=O)N(C)[C@H](C(=O)N(C)C)CC(=O)N1C [PP1934]	A (a compound having 10 or more and less than 20 is denoted as A)	A (a compound having 10 or more and less than 20 is denoted as A)	
CCC(CC)[C@H]1C(=O)N(C)[C@H](C(=O)N(C)C)CC(=O)N(C)[C@@H](COC)C(=O)N[C@@H]([C@@H](C)CC)C(=O)N(C)CC(=O)N(C)[C@H]2C/C=C\CCN(C2=O)[C@@H](Cc2ccc(C)cc2)C(=O)N(C)CC(=O)N[C@@H](CCc2ccc(C(F)(F)F)c(Cl)c2)C(=O)N2CCCC[C@H]2C(=O)NC2(CC(C)(C)C2)C(=O)N1C [PP2931]			HRAS/KRAS (ratio of KD value with respect to GDP-bound HRAS wild-type protein to KD value with respect to KRAS) ([1]; KD ratio HRAS/KRAS, class symbols): A (a compound having 10 or more and less than 20 is denoted as A); NRAS/KRAS (ratio of KD value with respect to GDP-bound NRAS wild-type protein to KD value with respect to KRAS) ([2]; KD ratio NRAS/KRAS, class symbols): A (a compound having 10 or more and less than 20 is denoted as A)
CC[C@H](C)[C@@H]1NC(=O)[C@H](CC)N(C)C(=O)C[C@@H](C(=O)N(C)C)N(CC)C(=O)[C@H](C2CCCC2)N(C)C(=O)C2(CCC2)NC(=O)[C@@H]2CCCN2C(=O)[C@H](CCc2cc(F)c(C(F)(F)F)c(F)c2)NC(=O)CN(C)C(=O)[C@H](Cc2ccc(C(F)(F)F)cc2)N2CC/C=C\C[C@@H](C2=O)N(C)C(=O)CN(C)C1=O [PP1106]			HRAS/KRAS (ratio of KD value with respect to HRAS to KD value with respect to KRAS) ([1]; KD ratio): A (a compound having 10 or more and less than 20 is denoted as A); NRAS/KRAS (ratio of KD value with respect to NRAS to KD value with respect to KRAS) ([2]; KD ratio): A (a compound having 10 or more and less than 20 is denoted as A)
CCO[C@@H]1C[C@H]2C(=O)NC3(CC(C)(C)C3)C(=O)N(C)[C@@H](C(CC)CC)C(=O)N(C)[C@H](CC)CC(=O)N(C)[C@@H](CC3CC3)C(=O)N[C@@H]([C@@H](C)CC)C(=O)N(C)CC(=O)N(C)[C@H]3C/C=C\CCN(C3=O)[C@@H](Cc3ccc(C(F)(F)F)cc3)C(=O)N(C)CC(=O)N[C@@H](CCc3cc(F)c(C(F)(F)F)c(F)c3)C(=O)N2C1 [PP1628]	A (a compound having 10 or more and less than 20 is denoted as A)	A (a compound having 10 or more and less than 20 is denoted as A)	
CCO[C@@H]1C[C@H]2C(=O)NC3(CC(C)(C)C3)C(=O)N(C)[C@@H](C(CC)CC)C(=O)N(C)[C@H](C(=O)N(C)C)CC(=O)N(C)[C@@H](CC)C(=O)N[C@@H]([C@@H](C)CC)C(=O)N(C)CC(=O)N(C)[C@H]3C/C=C\CCN(C3=O)[C@@H](Cc3ccc(C)cc3)C(=O)N(C)CC(=O)N[C@@H](CCc3ccc(Cl)c(Cl)c3)C(=O)N2C1 [PP2188]			HRAS/KRAS (ratio of KD value with respect to HRAS to KD value with respect to KRAS) [1]: A (a compound having 10 or more and less than 20 is denoted as A); NRAS/KRAS (ratio of KD value with respect to NRAS to KD value with respect to KRAS) [2]: AA (a compound having 20 or more is denoted as AA)
CCCOC[C@H]1C(=O)N[C@@H]([C@@H](C)CC)C(=O)N(C)CC(=O)N(C)[C@H]2C/C=C\CCN(C2=O)[C@@H](Cc2ccc(C(F)(F)F)cc2)C(=O)N(C)CC(=O)N[C@@H](CCc2cc(F)c(C(F)(F)F)c(F)c2)C(=O)N2C[C@H](F)C[C@H]2C(=O)NC2(CC(C)(C)C2)C(=O)N(C)[C@@H](C2CCCC2)C(=O)N(C)[C@H](C(=O)N(C)CCC)CC(=O)N1C [PP1698]	A (a compound having 10 or more and less than 20 is denoted as A)	A (a compound having 10 or more and less than 20 is denoted as A)	
